ChEMBL document CHEMBL4425171, “Cholinesterase inhibitory activity of chlorophenoxy derivatives-Histamine H3 receptor ligands” (Bioorg Med Chem Lett, 2016)
Activity calls are given as the source filed them. The calls are words filed in the database; no cut-off is given here.

Key:
[1] = biological target: T1, Cholinesterase (Equus caballus, UniProt P81908)
Description: Inhibition of equine serum BChE using butyrylthiocholine chloride as substrate preincubated for 5 mins followed by substrate addition measured after 5 mins by Ellmans method

[2] = biological target: Acetylcholinesterase (Electrophorus electricus, UniProt O42275); experiment: Inhibition of electric eel AChE using acetylthiocholine iodide as substrate preincubated for 5 mins followed by substrate addition measured after 5 mins by Ellmans method
[3] = biological target: Cholinesterase (Equus caballus) (UniProt P81908); experiment: Inhibition of equine serum BChE using butyrylthiocholine chloride as substrate at 10 uM preincubated for 5 mins followed by substrate addition measured after 5 mins by Ellmans method
[4] = biological target: Acetylcholinesterase (Electrophorus electricus) (UniProt O42275); experiment: Inhibition of electric eel AChE using acetylthiocholine iodide as substrate at 10 uM preincubated for 5 mins followed by substrate addition measured after 5 mins by Ellmans method
[5] = biological target: T1, Cholinesterase; experiment: Inhibition of equine serum BChE using butyrylthiocholine chloride as substrate preincubated for 4.5 mins followed by substrate addition measured after 2.5 mins by Ellmans method
[6] = biological target: Acetylcholinesterase (Electrophorus electricus) (UniProt O42275); experiment: Mixed-type inhibition of electric eel AChE using acetylthiocholine iodide as substrate at 5 to 20 uM by Lineweaver-Burk double reciprocal plot analysis
[7] = biological target: Cholinesterase (Equus caballus) (UniProt P81908); experiment: Non-competitive inhibition of equine serum BChE using butyrylthiocholine chloride as substrate at 2 to 5 uM by Lineweaver-Burk double reciprocal plot analysis
[8] = biological target: Acetylcholinesterase (Electrophorus electricus) (UniProt O42275); experiment: Mixed-type inhibition of electric eel AChE using acetylthiocholine iodide as substrate at 2 to 10 uM by Lineweaver-Burk double reciprocal plot analysis
[9] = biological target: Histamine H3 receptor (Homo sapiens, UniProt Q9Y5N1); experiment: biochemical
Histamine H3 receptor, sequence (Q9Y5N1 whole entry): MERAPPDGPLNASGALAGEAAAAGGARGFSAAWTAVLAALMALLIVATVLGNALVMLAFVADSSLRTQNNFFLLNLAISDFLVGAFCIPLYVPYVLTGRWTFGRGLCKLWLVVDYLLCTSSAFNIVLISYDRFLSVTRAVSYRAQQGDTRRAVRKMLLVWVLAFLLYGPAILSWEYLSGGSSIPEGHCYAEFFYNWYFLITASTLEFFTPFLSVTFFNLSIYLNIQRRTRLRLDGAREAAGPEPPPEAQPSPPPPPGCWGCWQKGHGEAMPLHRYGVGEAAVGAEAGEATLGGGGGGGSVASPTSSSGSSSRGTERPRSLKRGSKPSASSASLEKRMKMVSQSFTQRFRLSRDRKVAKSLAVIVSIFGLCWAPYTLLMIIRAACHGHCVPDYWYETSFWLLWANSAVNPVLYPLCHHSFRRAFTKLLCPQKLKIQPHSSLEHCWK
Description: Displacement of [3H]Nalpha-methylhistamine from human full length recombinant histamine H3 receptor expressed in HEK293 cell membranes after 90 mins by liquid scintillation counting method

Acetylcholinesterase (Electrophorus electricus), sequence (O42275 24-633 limits assumed): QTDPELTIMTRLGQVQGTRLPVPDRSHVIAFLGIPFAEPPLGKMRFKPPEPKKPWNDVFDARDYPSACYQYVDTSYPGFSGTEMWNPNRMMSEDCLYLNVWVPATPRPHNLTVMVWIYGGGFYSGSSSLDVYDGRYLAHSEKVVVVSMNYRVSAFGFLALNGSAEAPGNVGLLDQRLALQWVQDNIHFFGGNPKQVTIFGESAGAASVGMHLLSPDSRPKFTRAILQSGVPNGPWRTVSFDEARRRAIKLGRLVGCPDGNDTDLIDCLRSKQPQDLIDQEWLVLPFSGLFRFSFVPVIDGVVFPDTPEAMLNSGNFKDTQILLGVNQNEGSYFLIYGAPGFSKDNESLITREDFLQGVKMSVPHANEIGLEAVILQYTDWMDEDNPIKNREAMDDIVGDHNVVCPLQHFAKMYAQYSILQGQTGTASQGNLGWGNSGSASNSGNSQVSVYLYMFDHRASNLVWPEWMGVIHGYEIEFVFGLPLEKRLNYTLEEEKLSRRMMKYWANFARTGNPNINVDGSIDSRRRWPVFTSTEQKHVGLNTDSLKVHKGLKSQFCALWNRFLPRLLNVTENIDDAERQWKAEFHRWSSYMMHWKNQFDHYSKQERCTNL
T1 sequence (P81908 whole entry): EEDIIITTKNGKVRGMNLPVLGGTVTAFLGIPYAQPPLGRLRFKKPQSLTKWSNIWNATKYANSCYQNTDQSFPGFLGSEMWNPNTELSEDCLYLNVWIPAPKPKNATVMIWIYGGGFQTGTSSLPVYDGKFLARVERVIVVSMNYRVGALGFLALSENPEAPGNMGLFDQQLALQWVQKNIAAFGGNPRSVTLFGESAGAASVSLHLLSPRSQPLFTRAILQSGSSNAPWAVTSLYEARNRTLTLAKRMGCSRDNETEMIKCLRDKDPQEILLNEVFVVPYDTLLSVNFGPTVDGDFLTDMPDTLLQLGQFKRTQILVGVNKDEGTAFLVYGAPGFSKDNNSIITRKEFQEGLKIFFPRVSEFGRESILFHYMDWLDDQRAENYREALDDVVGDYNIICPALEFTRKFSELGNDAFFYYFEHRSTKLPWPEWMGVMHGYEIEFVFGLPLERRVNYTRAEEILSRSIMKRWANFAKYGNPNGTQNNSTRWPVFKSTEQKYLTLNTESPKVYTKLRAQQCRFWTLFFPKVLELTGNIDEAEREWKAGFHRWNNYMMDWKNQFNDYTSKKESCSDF
Cholinesterase (Equus caballus), sequence (P81908 whole entry): as above
Acetylcholinesterase, sequence (O42275 whole entry): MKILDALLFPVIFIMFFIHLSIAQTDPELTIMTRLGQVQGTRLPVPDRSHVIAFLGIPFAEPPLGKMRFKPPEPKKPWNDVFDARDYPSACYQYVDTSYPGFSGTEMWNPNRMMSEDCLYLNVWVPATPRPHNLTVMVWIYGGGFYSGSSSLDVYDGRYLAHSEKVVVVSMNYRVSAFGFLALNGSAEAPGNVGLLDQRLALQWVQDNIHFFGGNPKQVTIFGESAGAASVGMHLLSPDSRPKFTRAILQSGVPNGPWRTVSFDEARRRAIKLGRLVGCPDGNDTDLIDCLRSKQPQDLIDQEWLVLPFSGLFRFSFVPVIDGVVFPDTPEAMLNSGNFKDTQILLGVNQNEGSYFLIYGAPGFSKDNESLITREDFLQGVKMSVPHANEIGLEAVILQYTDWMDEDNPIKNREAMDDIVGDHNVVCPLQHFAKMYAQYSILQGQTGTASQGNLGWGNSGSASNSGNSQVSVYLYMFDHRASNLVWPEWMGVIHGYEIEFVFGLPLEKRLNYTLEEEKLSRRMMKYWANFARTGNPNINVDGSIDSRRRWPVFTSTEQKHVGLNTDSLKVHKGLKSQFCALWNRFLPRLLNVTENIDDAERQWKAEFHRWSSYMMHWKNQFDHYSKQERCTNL

SMILES	IC50 [1] [µM]	IC50 [2] [µM]	inhibition [3] [%]	also measured
CC1CCN(CCCCCCCOc2ccc(Cl)cc2)CC1	2.92	2.74		
Clc1ccc(OCCCCCCN2CCCCCC2)cc1	3.74	3.88		
CC1CCCN(CCCCCCOc2ccc(Cl)cc2)C1 (stereo not given)	> 10	4.8	< 50	
CC1CCCN(CCCCCCOc2cccc(Cl)c2)C1 (stereo not given)	> 10	6.22	< 50	
Clc1ccc(OCCCCCN2CCCCCC2)cc1	3.45	> 10		inhibition [4]: < 50%
CC1CCN(CCCCCCOc2ccc(Cl)cc2)CC1	5.43	8.11		
Clc1cccc(OCCCCCCN2CCCCCC2)c1	2.43	5.4		
Clc1ccc(OCCCCCN2CCCCC2)cc1	> 10	> 10	< 50	inhibition [4]: < 50%
c1cc2c(cc1OCCCN1CCCCC1)CN1CCCC1=N2				IC50 [5]: 8.2 µM
CC1CCCN(CCCCCCCOc2ccc(Cl)cc2)C1 (stereo not given)	> 10	4.51	< 50	inhibition [6]: Active
CC1CCN(CCCCCOc2ccc(Cl)cc2)CC1	> 10	> 10	< 50	inhibition [4]: < 50%
Clc1cccc(OCCCCCCCN2CCCCCC2)c1	0.9	2.42		
Clc1ccc(OCCCCCCN2CCCCC2)cc1	> 10	> 10	< 50	inhibition [4]: < 50%
Clc1ccc(OCCCCCCCN2CCCCC2)cc1	> 10	3.94	< 50	
Clc1ccc(OCCCOCCCN2CCCCCC2)cc1	4.97	7.91		
CC1CCN(CCCCCCCOc2cccc(Cl)c2)CC1	1.66	4.9		
CC1CCCN(CCCCCOc2ccc(Cl)cc2)C1 (stereo not given)	> 10	23.6	< 50	
CC1CCN(CCCCCCOc2cccc(Cl)c2)CC1	3.53	7.31		
Clc1ccc(OCCCCCCCN2CCCCCC2)cc1	1.64	1.93		inhibition [7]: Active; inhibition [8]: Active
Clc1cccc(OCCCCCCCN2CCCCC2)c1	4.75	5.33		
Clc1cccc(OCCCCCCN2CCCCC2)c1	> 10	18.6	< 50	
CC1CCCN(CCCCCCCOc2cccc(Cl)c2)C1 (stereo not given)	5.15	3.8		Ki [9]: 0.446 µM
